US20260085262A1, “ACQ FLUORESCENCE PROBE COMPOSITION, CMC DETERMINATION METHOD, STAIN CLEANING CONCENTRATION DETERMINATION METHOD, DETERGENT DISPENSING CONTROL METHOD, AND DETERGENT DISPENSING CONTROL SYSTEM” (GUANGZHOU BLUEMOON INDUSTRIAL CO., LTD., priority 2024, published 2026)
Read-outs that look alike come from different tables or passages of the source.

Key:
[1] = solvent, cited from earlier work
[2] = document value; cited from earlier work
[3] = Hansen solubility parameters (HSP), δ difference and HSP distance Ra
[4] = cmc determination with probe solutions in NMP, fluorescence spectrophotometer; format: physicochemical; details: Supreme Brilliant White washing water with fluorescent brightener; probe dissolved in NMP
[5] = as above; format: physicochemical; details: Supreme Clean solution (directly prepared); probe dissolved in NMP; range read from fluorescence intensity-concentration curve
[6] = cmc of detergent solution by fluorescence probe method, fluorescence spectrophotometer (Example 1); format: physicochemical
[7] = cmc by fluorescence probe method, customized photoelectric detector (CD detector); format: physicochemical; details: aqueous solution of Supreme Biotechnology (Bright White) laundry detergent; label = solvent for probe
Description: Here, the liquid to be tested is Supreme Biotechnology (Brilliant White) detergent solution (ZZLB), and the detector is a customized photoelectric detector (CD detector).
In addition, due to the use of the CUR-NMP single organic solvent composition system, the solvent addition amount in Table 6 can be considered equivalent to the addition amount of the probe solution. The cmc value is determined using the fitted line intersection method, i.e., according to the determination results of a fluorescence spectrophotometer, an appropriate wavelength is selected within the corresponding fluorescence emission peak range, and a fluorescence response value-concentration curve is plotted with detergent concentrations on the x-axis and fluorescence intensity on the y-axis. The plateau region and the rising region of the curve are fitted by linear regression, respectively, and the intersection point of two fitted lines is obtained. The surfactant concentration on the x-axis corresponding to the intersection point is the cmc concentration (measured value).
The fluorescence photoelectric detector used in the present invention includes any of the following: • 1) including excitation filter (430 nm), dichroic mirror, and emission filter (495 nm), light source: peak wavelength of 430 nm, waveband of 420 to 440 nm, working current: 0.02 A, working voltage: 5V, the acceptable wavelength range of detector of at least 480-510 nm; • 2) including excitation filter (550 nm), dichroic mirror, and emission filter (638 nm), light source: peak wavelength of 550 nm, waveband of 540 to 560 nm, working current: 0.02 A, working voltage: 5V, the acceptable wavelength range of detector of at least 620-650 nm.
Referring to Examples 1 and 3, Supreme Biotechnology (Brilliant White) detergent solution was prepared. […] Determination was carried out using a CD detector in the above two cases.

[8] = cmc by surface tension method; format: physicochemical; details: NMP without probe
From the text: Based on the above speculation, the inventors also observed the change in the cmc value at different addition amounts of the NMP solvent (without the probe) used in the CUR-NMP probe solution using the surface tension method. When the addition amount of NMP is less than 1000, the cmc value determined is affected to some extent, but the effect is small. When the addition amount of NMP is less than 400, the cmc value determined is basically not affected, and the result is basically consistent with the result determined by fluorescence spectrometry and conforms to the inference.
FIG. 5 is a graph showing the curves obtained by determining the cmc of the above various brands of detergent solutions using the surface tension method.

[9] = HSP distance between solvent and pyrene
[10] = HSP distance between solvent and rhodamine B
[11] = total δ of solvent minus total δ of pyrene
[12] = total δ of solvent minus total δ of rhodamine B
[13] = aqueous solution of Supreme Biotechnology (Bright White) laundry detergent, label = solvent for probe
[14] = aqueous solution of Supreme Biotechnology (Bright White) laundry detergent, label = solvent for probe (auxiliary agent)
[15] = HSP distance between solvent and curcumin (CUR)
[16] = total δ of solvent minus total δ of curcumin (CUR)

| δ difference [3, 16] | Compound | Flash point [1] | Viscosity [1] | Dispersion δD [2] | Hydrogen bonding δH [2] | Polarity δH [2] | Total δ [2] | Volatility/Boiling point [1] | other results |
| --- | --- | --- | --- | --- | --- | --- | --- | --- | --- |
| – | CC(O)CCO (stereo not drawn) [1,3-butanediol] | 121 °C | 130.3 mPa · s | – | – | – | – | – | Viscosity ([1]; listed as 1,3-butanediol (1,3-BDO)): 130 mPa · s |
| – | CC(C)=O [Acetone] | −17.8 °C | 0.316 mPa · s | 15.5 (MPa)^1/2 | 7 (MPa)^1/2 | 10.4 (MPa)^1/2 | 19.935 (MPa)^1/2 | 56 °C | Ra [3, 9]: 16.806 (MPa)^1/2; Ra [3, 10]: 13.727 (MPa)^1/2; δ difference [3, 11]: −2.974 (MPa)^1/2; δ difference [3, 12]: −10.518 (MPa)^1/2 |
| – | CC#N [Acetonitrile] | 5.6 °C | 0.375 mPa · s | 15.3 (MPa)^1/2 | 6.1 (MPa)^1/2 | 18 (MPa)^1/2 | 24.399 (MPa)^1/2 | 82 °C | – |
| – | Cc1cc(=O)oc2c3c4c(cc12)CCCN4CCC3 [C480, coumarin 480] | – | – | – | – | – | – | – | cmc value range [4]: 0.3 to 1 g/L; cmc value range [5]: 0.05 to 0.2 g/L |
| – | COc1cc(/C=C/C(=O)CC(=O)/C=C/c2ccc(O)c(OC)c2)ccc1O [CUR, curcumin] | – | – | – | – | – | – | – | cmc value range [4]: 0.2 to 0.3 g/L; cmc value range [5]: 0.05 to 0.1 g/L |
| – | CCCCOC(=O)c1ccccc1C(=O)OCCCC [Dibutyl phthalate] | 171 °C | 9.72 mPa · s | 17.8 (MPa)^1/2 | 4.1 (MPa)^1/2 | 8.6 (MPa)^1/2 | 20.189 (MPa)^1/2 | 339 °C | – |
| −0.382 (MPa)^1/2 | CCOCCOCCO [Diethylene glycol monoethyl ether (DGME), Diethylene glycol monoethyl ether] | 94 °C | 3.85 mPa · s | 16.1 (MPa)^1/2 | 12.2 (MPa)^1/2 | 9.2 (MPa)^1/2 | 22.197 (MPa)^1/2 | 202 °C | cmc value, NR, By Fluorescence spectrophotometer [6, 13]: 0.089 g/L; cmc value, CUR, By Fluorescence spectrophotometer [6, 14]: 0.086 g/L; cmc value, CUR, By Customized fluorescence photoelectric detector [7]: 0.114 g/L; cmc value, NR, By Customized fluorescence photoelectric detector [7]: 0.074 g/L; Ra [3, 15]: 6.386 (MPa)^1/2; Ra [3, 9]: 16.995 (MPa)^1/2; Ra [3, 10]: 10.489 (MPa)^1/2; δ difference [3, 11]: −0.712 (MPa)^1/2; δ difference [3, 12]: −8.256 (MPa)^1/2 |
| 4.096 (MPa)^1/2 | C[S+](C)[O-] [Dimethyl sulfoxide] | – | – | 18.4 (MPa)^1/2 | 10.2 (MPa)^1/2 | 16.4 (MPa)^1/2 | 26.675 (MPa)^1/2 | – | Ra [3, 15]: 13.383 (MPa)^1/2 |
| – | CN(C)C=O [Dimethylformamide (DMF), Dimethylformamide] | 58 °C | 0.802 mPa · s | 17.4 (MPa)^1/2 | 11.3 (MPa)^1/2 | 13.7 (MPa)^1/2 | 24.862 (MPa)^1/2 | – | – |
| – | CCOCC [Ether] | – | – | 14.5 (MPa)^1/2 | 4.6 (MPa)^1/2 | 2.9 (MPa)^1/2 | 15.486 (MPa)^1/2 | – | Ra [3, 9]: 16.064 (MPa)^1/2; Ra [3, 10]: 20.633 (MPa)^1/2; δ difference [3, 11]: −7.423 (MPa)^1/2; δ difference [3, 12]: −14.967 (MPa)^1/2 |
| 2.225 (MPa)^1/2 | CCOC(=O)CO [Ethyl glycolate] | 62 °C | – | – | – | – | – | 158 °C | Ra [3, 15]: 14.383 (MPa)^1/2 |
| – | OCCO [Ethylene glycol] | – | – | – | – | – | – | – | cmc value, CUR, By Fluorescence spectrophotometer [6]: 0.102 g/L; cmc value, NR, By Fluorescence spectrophotometer [6]: 0.091 g/L; cmc value, CUR, By Customized fluorescence photoelectric detector [7]: 0.121 g/L |
| 13.583 (MPa)^1/2 | OCC(O)CO [Glycerol] | – | – | 17.4 (MPa)^1/2 | 29.3 (MPa)^1/2 | 12.1 (MPa)^1/2 | 36.162 (MPa)^1/2 | – | Ra [3, 15]: 17.614 (MPa)^1/2 |
| 0.159 (MPa)^1/2 | CCN1CCCC1=O [N-ethylpyrrolidone (NEP), N-ethylpyrrolidone] | 76.1 °C | – | 18 (MPa)^1/2 | 7 (MPa)^1/2 | 12 (MPa)^1/2 | 22.738 (MPa)^1/2 | 218 °C | – |
| 0.380 (MPa)^1/2 | CN1CCCC1=O [N-methylpyrrolidone (NMP), N-methylpyrrolidone] | 85 °C | 1.65 mPa · s | 18 (MPa)^1/2 | 7.2 (MPa)^1/2 | 12.3 (MPa)^1/2 | 22.959 (MPa)^1/2 | 204 °C | cmc ([8]; solvent content 0 (v organic solvent/v water)): 0.067 g/L; cmc ([8]; solvent content 0.4%): 0.076 g/L; cmc ([8]; solvent content 1%): 0.073 g/L; cmc ([8]; solvent content 2%): 0.101 g/L; cmc ([8]; solvent content 4%): 0.082 g/L; cmc ([8]; solvent content 10%): 0.131 g/L; cmc ([8]; solvent content 20%): 0.22 g/L; cmc value, NR, By Fluorescence spectrophotometer [6, 13]: 0.088 g/L; cmc value, CUR, By Fluorescence spectrophotometer [6, 14]: 0.100 g/L; cmc value, CUR, By Customized fluorescence photoelectric detector [7]: 0.116 g/L; cmc value, NR, By Customized fluorescence photoelectric detector [7]: 0.066 g/L; Ra [3, 15]: 10.950 (MPa)^1/2; Ra [3, 9]: 14.343 (MPa)^1/2; Ra [3, 10]: 12.708 (MPa)^1/2; δ difference [3, 11]: 0.050 (MPa)^1/2; δ difference [3, 12]: −7.494 (MPa)^1/2 |
| – | c1ccc(Nc2cccc3ccccc23)cc1 [NPN, N-phenyl-1-naphthylamine] | – | – | – | – | – | – | – | cmc value range [5]: 0.02 to 0.05 g/L |
| – | CCN(CC)c1ccc2nc3c4ccccc4c(=O)cc-3oc2c1 [NR, Nile red] | – | – | – | – | – | – | – | cmc value range [4]: 0.2 to 0.3 g/L; cmc value range [5]: 0.05 to 0.1 g/L |
| – | c1cc2ccc3cccc4ccc(c1)c2c34 [PYR, pyrene, reference compound] | – | – | 22.5 (MPa)^1/2 | 4 (MPa)^1/2 | 1.6 (MPa)^1/2 | 22.909 (MPa)^1/2 | – | cmc value range [4]: 0.03 to 0.1 g/L; cmc value range [5]: 0.05 to 0.2 g/L |
| – | CCN(CC)c1ccc2c(-c3ccccc3C(=O)O)c3ccc(=[N+](CC)CC)cc-3oc2c1 [RhB, rhodamine B, reference compound] | – | – | 16.7 (MPa)^1/2 | 18.5 (MPa)^1/2 | 17.5 (MPa)^1/2 | 30.453 (MPa)^1/2 | – | cmc value range [4]: 0.3 to 1 g/L; cmc value range [5]: 0.1 to 0.15 g/L |
| – | Cc1ccccc1 [Toluene] | 4.4 °C | 0.587 mPa · s | 18 (MPa)^1/2 | 2 (MPa)^1/2 | 1.4 (MPa)^1/2 | – | – | – |
| – | Polyethylene glycol 200 [Polyethylene glycol 200 (PEG200)] | >100 °C | (22-23) mPa · s | – | – | – | – | – | cmc value, NR, By Fluorescence spectrophotometer [6, 13]: 0.062 g/L; cmc value, CUR, By Fluorescence spectrophotometer [6, 14]: 0.094 g/L; cmc value, CUR, By Customized fluorescence photoelectric detector [7]: 0.113 g/L; cmc value, NR, By Customized fluorescence photoelectric detector [7]: 0.069 g/L |
| – | Water | – | 1.002 mPa · s | 15.5 (MPa)^1/2 | 42.3 (MPa)^1/2 | 16 (MPa)^1/2 | 47.807 (MPa)^1/2 | – | – |

| Compound | δ difference [3, 16] | Flash point [1] | Viscosity [1] | Dispersion δD [2] | Hydrogen bonding δH [2] | Polarity δH [2] | Total δ [2] | Volatility/Boiling point [1] | other results |
| --- | --- | --- | --- | --- | --- | --- | --- | --- | --- |
| OCCOc1ccccc1 [Ethylene glycol monophenyl ether] | −0.207 (MPa)^1/2 | 121 °C | 30.5 mPa · s | 17.8 (MPa)^1/2 | 12.2 (MPa)^1/2 | 5.9 (MPa)^1/2 | 22.372 (MPa)^1/2 | 245 °C | Ra [3, 15]: 2.858 (MPa)^1/2 |
